Data set [1] has as its target T1, CB1 receptor (Rattus norvegicus, UniProt P20272). The note with it: values from Hanu et al 1999; ligand [3H]HU-243; cited from earlier work.
Data set [2] has as its system Male ICR mice. Kind of data set: Suppression of spontaneous activity (SA) in mice. In kind it is in vivo, mouse. The method, then: (§1) Male ICR mice (25–32 g), obtained from Harlan (Dublin, Va.), were housed in groups of five. All animals were kept in a temperature-controlled (20–22° C.) environment with a 12-hour light-dark cycle (lights on at 7 a.m.). Separate mice were used for testing each drug dose in the in vivo behavioral procedures. Brain tissue for binding studies was obtained from male Sprague-Dawley rats (150–200 g) purchased from Harlan Laboratories (Dublin, Va.).
(§2) Measurement of spontaneous activity in mice occurred in standard activity chambers interfaced with a Digiscan Animal Activity Monitor (Omnitech Electronics, Inc., Columbus, Ohio). A standard tail-flick apparatus and a digital thermometer (Fisher Scientific, Pittsburgh, Pa.) were used to measure antinociception and rectal temperature, respectively
(§3) Resorcinols were synthesized in our labs (Organix, Inc., Woburn, Mass.) according to the procedure specified below and were suspended in a vehicle of absolute ethanol, Emulphor-620 (Rhone-Poulenc, Inc., Princeton, N.J.), and saline in a ratio of 1:1:18. Drugs were administered to the mice intravenously (i.v.) in the tail vein at a volume of 0.1 ml/10 g.
(§4) Prior to testing in the behavioral procedures, mice were acclimated to the experimental setting (ambient temperature 22–24° C.) overnight. Pre-injection control values were determined for rectal temperature and tail-flick latency (in sec). […] Tail-flick latency was measured at 20 min post-injection. Maximum latency of 10 sec was used. Antinociception was calculated as percent of maximum possible effect {% MPE=[(test−control latency)/(10-control)]×100}. Control latencies typically ranged from 1.5 to 4.0 sec. At 30 min post-injection, rectal temperature was measured This value was expressed as the difference between control temperature (before injection) and temperatures following drug administration (° C.). Different mice (n=5–6 per dose) were tested for each dose of each compound. Each mouse was tested in each of the 3 procedures.
(§5) Based on data obtained from numerous previous studies with cannabinoids, maximal cannabinoid effects in each procedure were estimated as follows: 90% inhibition of spontaneous activity, 100% MPE in the tail flick procedure, and −6° C. change in rectal temperature. ED50's were defined as the dose at which half maximal effect occurred. For drugs that produced one or more cannabinoid effect, ED50's were calculated separately using least-squares linear regression on the linear part of the dose-effect curve for each measure in the mouse tetrad, plotted against log10 transformation of the dose. For the purposes of potency comparison, potencies were expressed as μmol/kg.

The target in another data set is T2, CB2 receptor (Homo sapiens, UniProt P34972).
T2 construct: expressed in transfected cells; host or cells: CHO cells, G418-selected transfected line
T2 sequence (P34972 whole entry): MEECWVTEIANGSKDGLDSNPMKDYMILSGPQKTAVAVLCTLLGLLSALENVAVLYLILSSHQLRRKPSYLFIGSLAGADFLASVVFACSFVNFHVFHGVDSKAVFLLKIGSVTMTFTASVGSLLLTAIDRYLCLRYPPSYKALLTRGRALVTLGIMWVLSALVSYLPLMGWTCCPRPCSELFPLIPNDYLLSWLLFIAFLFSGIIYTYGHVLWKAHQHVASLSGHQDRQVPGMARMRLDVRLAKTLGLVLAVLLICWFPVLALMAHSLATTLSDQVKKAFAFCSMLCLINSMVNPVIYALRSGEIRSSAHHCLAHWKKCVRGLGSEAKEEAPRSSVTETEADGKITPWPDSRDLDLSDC
Kind of data set: CB2 binding procedure: displacement of [3H]CP-55,940 from membranes of transfected CHO cells. The note with it: for Ki: means ± SEM, [3H]CP-55,940, transfected CHO cell membranes, read-out: Ki (nM) CB2. The method, then:
Membranes for CB2 binding were obtained from CHO cells. The transfected cell line was maintained in Dublecco's Modified Eagle Medium (Gibco BRL, Grand Island, N.Y.) with 10% fetal clone II (HyClone Laboratories, Inc., Logan, Utah) plus 0.3 to 0.5 mg/ml G418 (to maintain selective pressure) under 5% CO2 at 37% C. Cells were harvested with 1 mM EDTA in phosphate-buffered saline and were centrifuged at 1000×g for 5 min at 4% C. The supernatant was saved and the P1 pellet was resuspended in centrifugation buffer. Homogenization and centrifugation were repeated twice and the combined supernatant fractions were centrifuged at 40,000×g for 30 min at 4% C. The P2 pellet was resuspended in centrifugation buffer 2 (Tris HCl, 50 mM; EDTA, 1 mM; and MgCl2, 3 mM, pH 7.4) to a protein concentration of approximately 2 mg/ml. Protein concentrations were determined by the method of Bradford (1976) using Bio-Rad Protein Assay (Bio-Rad, Richmond, Calif.) and BSA standards (fatty acid free, Sigma Chemical Co., St. Louis, Mo.). The membrane preparation was divided into amounts convenient for binding assays and frozen rapidly in dry ice and stored at −80% C.
Binding was initiated by the addition of 50 μg of quickly thawed P2 membranes to test tubes containing [^3H]CP-55,940 (final reaction concentration 0.5 nM), an appropriate concentration of unlabeled CP-55,940 or test drug, and sufficient quantity of assay buffer (50 mM Tris-HCl, 1 mM EDTA, 3 mM MgCl2, 5 mg/ml bovine serum albumin, pH 7.4) to bring the total incubation volume to 0.5 ml. Concentration of [^3H]CP-55,940 in saturation studies ranged from 50 to 10,000 pM. Nonspecific binding was determined by the addition of 1 μM unlabeled CP-55,940. CP-55,940 and all cannabinoid analogs were prepared by suspension in assay buffer from a 1 mg/ml ethanolic stock without evaporation of the ethanol (final concentration of no more than 0.4%). In competition studies, analog concentrations ranged from 0.1 nM to 10 μM. After incubation at 30% C for 1 hr, binding was terminated by the addition of 2 ml of ice-cold wash buffer (50 mM Tris-HCl and 1 mg/ml BSA) and vacuum filtration through pre-treated filters in a 12-well sampling manifold (Millipore, Bedford, Mass.). Reaction vessels were washed once with 2 ml of ice-cold wash buffer. Filters were placed into 7-ml plastic scintillation vials (RPI Corp., Mount Prospect, Ill.) with 4 ml of Budget-Solve (RPI Corp.). After shaking for 30 min, the radioactivity present was determined by liquid scintillation spectrometry. Three reaction vessels were used for each drug concentration in each assay. The results represent the combined data of three independent experiments. All assays were performed in siliconized test tubes, which were prepared by air drying (12 hr) inverted borosilicate tubes after two rinses with a 0.1% solution of AquaSil (Pierce, Rockford, Ill.). The GF/C glass-fiber filters (2.4 cm, Baxter, McGaw Park, Ill.) were pre-treated in a 0.1% solution of pH 7.4 polyethylenimine (Sigma Chemical Co.) for at least 6 hr.
(§6) In addition, multiple linear regression was used to calculate the overall degree of relationship between CB1 binding affinity and potency in the mouse measures for all active cannabinoids. […] Ki values for CB1 and CB2 binding were obtained from Scatchard displacement analysis as determined via EBDA program of the KELL software package (Biosoft, Milltown, N.J.).
Background: Loss of bound radioactivity is the signal in a displacement assay; it reports binding, not function.

Data set [3] has as its target T1, CB1 receptor. Kind of data set: CB1 binding procedure: displacement of [3H]CP 55,940 from rat whole-brain P2 membranes. Details: whole brain was homogenized and centrifuged; from tissue; host or cells: rat whole brain, P2 membrane fraction. The settings on record: means ± SEM; [3H]CP 55,940, rat brain membranes; read-out: Ki (nM) CB1. The method, then:
as §1
The methods used for tissue preparation and binding have been described previously (Compton et al., 1993) and are similar to those described by Devane et al. (1988). All assays, as described briefly below, were performed in triplicate, and the results represent the combined data from three to six individual experiments.
Following decapitation and rapid removal of the brain, whole brain was homogenized and centrifuged. The resulting pellet was termed P1. The supernatant was saved and combined with the two subsequent supernatants obtained from washing of the P1 pellet. The combined supernatant fractions were centrifuged, resulting in the P2 pellet. After further incubation and centrifuging, this pellet was resuspended in assay buffer to a protein concentration of approximately 2 mg/ml. The membrane preparation was quickly frozen in a bath solution of dry ice and 2-methylbutane (Sigma Chemical Co., St. Louis, Mo.), then stored at −80° C. for no more than 2 weeks. Prior to performing a binding assay an aliquot of frozen membrane was rapidly thawed and protein values determined by the method of Bradford (1976).
Binding was initiated by the addition of 150 μg of P2 membrane to test tubes containing 1 nM of [^3H] CP 55,940 (79 Ci/mmol) and a sufficient quantity of buffer to bring the total incubation volume to 1 ml. Nonspecific binding was determined by the addition of 1 μM unlabeled CP 55,940. Following incubation at 30° C. for 1 hr, binding was terminated by addition of ice cold buffer and vacuum filtration through pretreated filters in a 12-well sampling manifold (Millipore, Bedford, Mass.). After washing, filters were placed into plastic scintillation vials (Packard, Downer Grove, Ill.) and shaken. The quantity of radioactivity present was determined by liquid scintillation spectrometry.
as §6

For data set [4], the system named is Male ICR mice. Kind of data set: Lethality noted in the mouse behavioral procedures. The data set is classed as in vivo. The settings on record: Table 6; @ 30 (mg/kg). The procedure:
as §3, §4

Data set [5] relates to Male ICR mice. Kind of data set: Tail-flick antinociception (TF, % MPE) in mice. The data set is classed as in vivo, mouse. The settings on record: for T.F. % effect at dose: Table 6. The method, then: as §1, §2, §3, §4, §5
For data set [6], the system named is Male ICR mice. Kind of data set: Change in rectal temperature (RT) in mice. In kind it is in vivo, mouse. The settings on record: for R.T. effect at dose: Table 6. The procedure:
as §1, §2, §3, §4, §5

Structures are written as SMILES. Where two headings read alike, the source gives them in different places.

T1 sequence (P20272 whole entry): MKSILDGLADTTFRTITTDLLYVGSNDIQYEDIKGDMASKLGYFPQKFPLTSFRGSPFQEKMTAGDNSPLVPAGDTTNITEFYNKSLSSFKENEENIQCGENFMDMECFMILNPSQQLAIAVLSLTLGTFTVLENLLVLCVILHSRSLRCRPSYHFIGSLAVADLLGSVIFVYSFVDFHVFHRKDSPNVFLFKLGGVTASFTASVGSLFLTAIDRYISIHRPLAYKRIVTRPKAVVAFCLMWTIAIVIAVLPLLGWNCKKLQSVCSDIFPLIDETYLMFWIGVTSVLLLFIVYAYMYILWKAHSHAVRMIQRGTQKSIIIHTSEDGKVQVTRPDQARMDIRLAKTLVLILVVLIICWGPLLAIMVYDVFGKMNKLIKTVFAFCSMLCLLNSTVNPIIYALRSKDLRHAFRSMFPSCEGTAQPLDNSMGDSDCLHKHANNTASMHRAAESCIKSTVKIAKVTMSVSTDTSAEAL

Broadly, the Ki is a measure of affinity in units of concentration, obtained from inhibition or displacement. Consider `CCCCCCC(C)(C)c1cc(OC)c([C@@H]2C=C(CO)[C@@H]3C[C@H]2C3(C)C)c(OC)c1` [HU-308], for which the inhibition constant (Ki) at CB1 receptor [1] is above 10000 nM.
`CCCCCCC(C)(C)c1cc(O)c(C2CCN(C)CC2)c(O)c1` [O-1662, 2-(1-Methylpiperidin-4-yl)-5-(1′,1′-dimethylheptyl)-re-sorcinol]: the “S.A % effect at dose, stim.” value in the data set on Male ICR mice [2] (Table 6, stimulation, @ 10 (mg/kg)) stood at 77% stim. Further, the “SA percent effect at the highest dose” value in the data set with Male ICR mice [2] (mice, i.v., 30 mg/kg, % inhibition of activity of vehicle group) is 87%(30). Also, the figures for the inhibition constant (Ki) on CB2 receptor and on CB1 receptor [3] were 5420 ± 1100 nM and above 10000 nM, respectively. Also, in the data set with Male ICR mice [4], the Lethality at dose result is reported as “Lethal”. In addition, the “T.F. % effect at dose” value with Male ICR mice [5] (@ 10 (mg/kg)) is on record as 7 @ 10%. In the data set with Male ICR mice [5] (mice, i.v., 30 mg/kg), the “TF percent effect (% MPE) at the highest dose” value was 30%(30). Also, in the data set on Male ICR mice [6] (@ 10 (mg/kg)), the “R.T. effect at dose” value is 1 °C. In addition, the “RT effect at the highest dose (change in rectal temperature)” value in the data set on Male ICR mice [6] (mice, i.v., 30 mg/kg) was −3(30) °C.
As for `CCCCCCC(C)(C)c1cc(OC)c(C2CCCC(C)C2)c(OC)c1` (stereo not shown) [O-1999], the “S.A % effect at dose” value in the data set on Male ICR mice [2] (Table 6, @ 30 (mg/kg)) is on record as 4 @ 30%. Further, the values for the Ki at CB2 receptor and on CB1 receptor [3] were 466 ± 110 nM and above 10000 nM, respectively. The “fold decrease in CB2 affinity” value on CB2 receptor (relative to the comparator analog) is on record as around 600 fold. Further, the “T.F. % effect at dose” value in the data set with Male ICR mice [5] (@ 30 (mg/kg)) is 6 @ 30%. Further, the “R.T. effect at dose” value in the data set with Male ICR mice [6] (@ 30 (mg/kg)) is 1 @ 30 °C.

The values above are taken from patent publication US7179800B2 (priority 2002, dated 2007).
